Measurements reported in ChEMBL document CHEMBL3044711, “Synthesis, characterization, and antimicrobial activity of some new 2-diazo-benzimidazole derivatives and their Ni(II), Cu(II), and Ag(I) complexes” (2013).
The source made the active and inactive calls. The rule behind the calls is not given here.

Key:
Assay type in all cases: functional
Bacillus subtilis = test: Antimicrobial activity against Bacillus subtilis assessed as diameter of growth inhibition zone at 1 mg/ml after 24 hr by nutrient agar well diffusion method; details: for zone of inhibition at 1000 µg/mL: read-out: DIZ
Staphylococcus aureus = test: Antimicrobial activity against Staphylococcus aureus assessed as diameter of growth inhibition zone at 1 mg/ml after 24 hr by nutrient agar well diffusion method; details: for zone of inhibition at 1000 µg/mL: read-out: DIZ
Aspergillus niger = test: Antimicrobial activity against Aspergillus niger assessed as diameter of growth inhibition zone at 1 mg/ml after 48 hr by potato dextrose agar well diffusion method
Candida albicans = test: Antimicrobial activity against Candida albicans assessed as diameter of growth inhibition zone at 1 mg/ml after 48 hr by potato dextrose agar well diffusion method
Klebsiella pneumoniae = test: Antimicrobial activity against Klebsiella pneumoniae assessed as diameter of growth inhibition zone at 1 mg/ml after 24 hr by nutrient agar well diffusion method
Escherichia coli = test: Antimicrobial activity against Escherichia coli assessed as diameter of growth inhibition zone at 1 mg/ml after 24 hr by nutrient agar well diffusion method; details: read-out: DIZ

| Compound | zone of inhibition at 1000 µg/mL (Bacillus subtilis) | zone of inhibition at 1000 µg/mL (Staphylococcus aureus) | zone of inhibition at 1000 µg/mL (Escherichia coli) | inhibition (Klebsiella pneumoniae) | also measured |
| --- | --- | --- | --- | --- | --- |
| CCOC(=O)C(C#N)/N=N/c1nc2ccccc2[nH]1 (stereo not drawn) | 8 mm | 7.5 mm | 8.5 mm |  | zone of inhibition at 1000 µg/mL (Aspergillus niger; read-out: DIZ): 8.5 mm; zone of inhibition at 1000 µg/mL (Candida albicans; read-out: DIZ): 9 mm; zone of inhibition at 1000 µg/mL (Klebsiella pneumoniae; read-out: DIZ): 9 mm |
| NYSTATIN |  |  |  |  | inhibition zone (IZ) (Aspergillus niger): 25 mm; inhibition zone (IZ) (Candida albicans): 36 mm |
| N#CC(C#N)/N=N/c1nc2ccccc2[nH]1 |  |  | 10.8 mm | inactive | inhibition (Bacillus subtilis): inactive; inhibition (Staphylococcus aureus): inactive; inhibition (Aspergillus niger): inactive; inhibition (Candida albicans): inactive |
| CC1(C)S[C@@H]2[C@H](NC(=O)[C@H](N)c3ccccc3)C(=O)N2[C@H]1C(=O)O [AMPICILLIN] | 29.5 mm | 30.5 mm | 31.2 mm | inactive |  |
